Results as given in US20040096498A1, “Oral pharmaceutical delivery system with improved sustained release” (priority 2002, published 2004).

Assay: Single oral dose pharmacokinetic study in dogs, varying the testosterone dose (Example 1)
Format: in vivo, dogs (female beagles)
Conditions: for Average Serum Testosterone / concentration at 0.5 h / concentration at 1 h / concentration at 2 h / concentration at 4 h / concentration at 5 h / concentration at 6 h / concentration at 8 h / concentration at 24 h: single oral; for Average Serum Testosterone: time 0 h (pre-dose); for Sustained release time, Lipid Suspension Time: time serum levels fell between about 300 and 1100 ng/dl; for concentration at 0.5 h / concentration at 1 h / concentration at 2 h / concentration at 4 h / concentration at 5 h / concentration at 6 h / concentration at 8 h / concentration at 24 h: female, beagle, dog, serum
Procedure: A study using six dogs (female beagles) was made to obtain preliminary pharmacokinetic data following a single oral dose of the delivery system. The dogs were 13-24 months old, and weighed in the range of 10.4 to 13.2 kg.
The dosing was done in four sequential one day intervals with a minimum two day rest period in between each interval. Blood was drawn immediately before the dose was administered. […] The animals were given the placebo or test article, as described above, at approximately the same time each day, immediately prior to being fed. The dog ate its food within 30 minutes of the dose being administered.
Blood samples were collected pre-dose and at 0.5, 1, 2, 4, 5, 6, 8 and 24 hours post dosing. At each time point, a minimum of 3 mL whole blood (or minimum volume determined by assay requirement) were collected by venipuncture of the jugular vein into non-heparinized Vacutainer tubes. The blood was centrifuged to obtain serum, which was kept on ice until placed into an appropriately sized vial, and frozen at −70° C. The samples remained frozen until delivered on dry ice to the lab for analysis. The lab used radioimmunoassay to analyse for testosterone.
Determining the sustained release properties of the samples in Example 1 by evaluating the amount of time the blood serum levels fell between about 300 and 1100 ng/dl, the sustained release times for Example 1 are given in Table 3. It is desirable to have release properties that are fairly constant with time. It is undesirable to have sharp peaks or drops in serum concentration of the drug.

SMILES: C[C@]12CC[C@H]3[C@@H](CCC4=CC(=O)CC[C@@]43C)[C@@H]1CC[C@@H]2O [Testosterone, testosterone]
- Average Serum Testosterone (dose 25 mg): 0 ng/dL
- Sustained release time, Lipid Suspension Time (dose 25 mg): 1 h
- Average Serum Testosterone (dose 50 mg): 1 ng/dL
- Sustained release time, Lipid Suspension Time (dose 50 mg): 0 h
- Average Serum Testosterone (dose 100 mg): 0 ng/dL
- Sustained release time, Lipid Suspension Time (dose 100 mg): 7 h
- Average Serum Testosterone (dose 250 mg): 26 ng/dL
- Sustained release time, Lipid Suspension Time (dose 250 mg): 7 h
- concentration at 0.5 h (dose 25 mg): 2.86 ng/mL
- concentration at 1 h (dose 25 mg): 3.9 ng/mL
- concentration at 2 h (dose 25 mg): 4.25 ng/mL
- concentration at 4 h (dose 25 mg): 1.18 ng/mL
- concentration at 5 h (dose 25 mg): 0.35 ng/mL
- concentration at 6 h (dose 25 mg): 0.53 ng/mL
- concentration at 8 h (dose 25 mg): 0.23 ng/mL
- concentration at 24 h (dose 25 mg): 0.01 ng/mL
- concentration at 0.5 h (dose 50 mg): 1.54 ng/mL
- concentration at 1 h (dose 50 mg): 2.86 ng/mL
- concentration at 2 h (dose 50 mg): 3.76 ng/mL
- concentration at 4 h (dose 50 mg): 2.88 ng/mL
- concentration at 5 h (dose 50 mg): 2.15 ng/mL
- concentration at 6 h (dose 50 mg): 1.07 ng/mL
- concentration at 8 h (dose 50 mg): 0.54 ng/mL
- concentration at 24 h (dose 50 mg): 0.07 ng/mL
- concentration at 0.5 h (dose 100 mg): 2.7 ng/mL
- concentration at 1 h (dose 100 mg): 3.09 ng/mL
- concentration at 2 h (dose 100 mg): 4.5 ng/mL
- concentration at 4 h (dose 100 mg): 5.22 ng/mL
- concentration at 5 h (dose 100 mg): 6.18 ng/mL
- concentration at 6 h (dose 100 mg): 3.57 ng/mL
- concentration at 8 h (dose 100 mg): 4.22 ng/mL
- concentration at 24 h (dose 100 mg): 0.02 ng/mL
- concentration at 0.5 h (dose 250 mg): 2.64 ng/mL
- concentration at 1 h (dose 250 mg): 5.55 ng/mL
- concentration at 2 h (dose 250 mg): 8.35 ng/mL
- concentration at 4 h (dose 250 mg): 10.3 ng/mL
- concentration at 5 h (dose 250 mg): 8.29 ng/mL
- concentration at 6 h (dose 250 mg): 9.8 ng/mL
- concentration at 8 h (dose 250 mg): 7.57 ng/mL
- concentration at 24 h (dose 250 mg): 0.08 ng/mL
